Results as given in ChEMBL document CHEMBL1201862, “PubChem BioAssay data set” (2004).
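1) Cells in 96-well plates. 2) Compound, 48 h, 5 concentrations. 3) Linear interpolation between surrounding doses. 4) Unreached endpoint = highest concentration. GI50 = concentration required for 50% inhibition of growth.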 Activity calls are given as the source filed them. No stated cut-off is given here; in the data, active = GI50 up to about 1.1 µM and inactive = higher.

Tests used:
Assay in all cases: growth of human tumour cells (NCI), 48 h
UO-31 = tested on: UO-31
A549 = tested on: A549
HOP-92 = tested on: HOP-92
HCC 2998 = tested on: HCC 2998
KM12 = tested on: KM12
RPMI-8226 = tested on: RPMI-8226
CCRF-CEM = tested on: CCRF-CEM
SK-MEL-5 = tested on: SK-MEL-5
SW-620 = tested on: SW-620
MOLT-4 = tested on: MOLT-4
SR = tested on: SR
SNB-75 = tested on: SNB-75
HCT-15 = tested on: HCT-15
NCI-H460 = tested on: NCI-H460
HL-60 = tested on: HL-60
DU-145 = tested on: DU-145
786-0 = tested on: 786-0
SF-268 = tested on: SF-268
IGROV-1 = tested on: IGROV-1
SN12C = tested on: SN12C
NCI/ADR-RES = tested on: NCI/ADR-RES
BT-549 = tested on: BT-549
MDA-MB-231 = tested on: MDA-MB-231
SK-OV-3 = tested on: SK-OV-3
U-251 = tested on: U-251
NCI-H226 = tested on: NCI-H226
UACC-62 = tested on: UACC-62
NCI-H23 = tested on: NCI-H23
T47D = tested on: T47D
OVCAR-4 = tested on: OVCAR-4
HOP-62 = tested on: HOP-62
LOX IMVI = tested on: LOX IMVI
MCF7 = tested on: MCF7
SF-539 = tested on: SF-539
K562 = tested on: K562
M14 = tested on: M14
MDA-N = tested on: MDA-N
A498 = tested on: A498
Malme-3M = tested on: Malme-3M
CAKI-1 = tested on: CAKI-1
COLO 205 = tested on: COLO 205
UACC-257 = tested on: UACC-257
Hs-578T = tested on: Hs-578T
OVCAR-5 = tested on: OVCAR-5
SF-295 = tested on: SF-295
TK-10 = tested on: TK-10
SK-MEL-28 = tested on: SK-MEL-28
OVCAR-8 = tested on: OVCAR-8
MDA-MB-435 = tested on: MDA-MB-435
HT-29 = tested on: HT-29
NCI-H522 = tested on: NCI-H522
ACHN = tested on: ACHN
SNB-19 = tested on: SNB-19
PC-3 = tested on: PC-3
OVCAR-3 = tested on: OVCAR-3
SK-MEL-2 = tested on: SK-MEL-2
HCT-116 = tested on: HCT-116
RXF 393 = tested on: RXF 393
EKVX = tested on: EKVX

Measured: GI50

COc1ccc(/C(C)=N/NC(=O)c2ccncc2)cc1OC
inactive: UO-31 9.08 µM | A549 > 10 µM | HOP-92 > 10 µM | HCC 2998 > 10 µM | KM12 > 10 µM | RPMI-8226 > 10 µM | CCRF-CEM > 10 µM | SK-MEL-5 > 10 µM | SW-620 > 10 µM | MOLT-4 > 10 µM | SR > 10 µM | SNB-75 > 10 µM | NCI-H460 > 10 µM | HL-60 > 10 µM | DU-145 > 10 µM | 786-0 > 10 µM | SF-268 > 10 µM | IGROV-1 > 10 µM | SN12C > 10 µM | NCI/ADR-RES > 10 µM | BT-549 > 10 µM | MDA-MB-231 > 10 µM | SK-OV-3 > 10 µM | U-251 > 10 µM | NCI-H226 2.82 µM | UACC-62 > 10 µM | NCI-H23 > 10 µM | T47D > 10 µM | OVCAR-4 > 10 µM | HOP-62 > 10 µM | LOX IMVI > 10 µM | MCF7 > 10 µM | SF-539 > 10 µM | K562 > 10 µM | M14 > 10 µM | MDA-N > 10 µM | A498 > 10 µM | Malme-3M > 10 µM | CAKI-1 > 10 µM | COLO 205 > 10 µM | UACC-257 > 10 µM | Hs-578T 7.05 µM
> 10 µM: HCT-15

O=C(CCNC12CC3CC(CC(C3)C1)C2)c1ccccc1
16.5 µM: HCT-15
inactive: UO-31 25.1 µM | OVCAR-5 21.2 µM | A549 30.1 µM | HOP-92 20.4 µM | SF-295 20 µM | HCC 2998 13.3 µM | KM12 23.6 µM | RPMI-8226 8.13 µM | TK-10 18.2 µM | CCRF-CEM 11.6 µM | SK-MEL-5 17.9 µM | SW-620 17.3 µM | MOLT-4 13.1 µM | SR 13.4 µM | SNB-75 33 µM | NCI-H460 19.6 µM | HL-60 10.3 µM | SK-MEL-28 22.3 µM | DU-145 24.8 µM | OVCAR-8 21.6 µM | 786-0 16.3 µM | MDA-MB-435 26.5 µM | SF-268 24.6 µM | HT-29 2.79 µM | IGROV-1 21.6 µM | SN12C 16.6 µM | NCI-H522 17.3 µM | NCI/ADR-RES 21.2 µM | BT-549 28.7 µM | MDA-MB-231 13.4 µM | U-251 15.1 µM | NCI-H226 33.1 µM | UACC-62 19.6 µM | NCI-H23 20.1 µM | T47D 20.6 µM | OVCAR-4 36.8 µM | MCF7 19.3 µM | SF-539 20.9 µM | ACHN 25.9 µM | K562 14.3 µM | M14 17.8 µM | SNB-19 47 µM | PC-3 19.6 µM | MDA-N 16 µM | OVCAR-3 > 10 µM | A498 17.4 µM | Malme-3M 18.2 µM | CAKI-1 > 10 µM | COLO 205 15 µM | SK-MEL-2 15.9 µM | UACC-257 15.3 µM | HCT-116 15.2 µM | RXF 393 20.1 µM

Cc1c(Cl)nc(Nc2nc3ccccc3[nH]2)nc1Cl
inactive: UO-31 > 100 µM | OVCAR-5 > 100 µM | A549 > 100 µM | HOP-92 2.06 µM | SF-295 > 100 µM | KM12 17.1 µM | RPMI-8226 > 100 µM | TK-10 > 100 µM | SK-MEL-5 > 100 µM | SW-620 31.2 µM | MOLT-4 > 100 µM | SR 19.9 µM | SNB-75 > 100 µM | NCI-H460 > 100 µM | HL-60 > 100 µM | SK-MEL-28 40 µM | DU-145 39.4 µM | OVCAR-8 41.7 µM | 786-0 59.4 µM | MDA-MB-435 > 100 µM | SF-268 47.6 µM | HT-29 25 µM | IGROV-1 36.2 µM | SN12C 41 µM | NCI-H522 89.5 µM | NCI/ADR-RES > 100 µM | BT-549 > 100 µM | SK-OV-3 > 100 µM | U-251 > 100 µM | NCI-H226 > 100 µM | UACC-62 > 100 µM | NCI-H23 92.9 µM | T47D 43.7 µM | OVCAR-4 29 µM | SF-539 > 100 µM | ACHN > 100 µM | K562 > 100 µM | M14 > 100 µM | SNB-19 > 100 µM | PC-3 > 100 µM | MDA-N > 100 µM | EKVX 21.9 µM | A498 > 100 µM | Malme-3M > 100 µM | CAKI-1 6.71 µM | COLO 205 72.3 µM | SK-MEL-2 > 100 µM | UACC-257 > 100 µM | Hs-578T 27.2 µM | HCT-116 > 100 µM | RXF 393 > 100 µM
> 100 µM: HCT-15

NC(=O)C1Cc2cc3c(cc21)OCO3 (centres undefined)
> 100 µM: HCT-15
inactive: UO-31 > 100 µM | OVCAR-5 > 100 µM | A549 > 100 µM | SF-295 > 100 µM | HCC 2998 > 100 µM | KM12 > 100 µM | TK-10 > 100 µM | SK-MEL-5 > 100 µM | SNB-75 > 100 µM | NCI-H460 > 100 µM | DU-145 > 100 µM | OVCAR-8 > 100 µM | 786-0 > 100 µM | SF-268 > 100 µM | HT-29 > 100 µM | IGROV-1 > 100 µM | NCI-H522 > 100 µM | NCI/ADR-RES > 100 µM | BT-549 > 100 µM | MDA-MB-231 > 100 µM | SK-OV-3 > 100 µM | NCI-H226 > 100 µM | UACC-62 > 100 µM | NCI-H23 > 100 µM | HOP-62 > 100 µM | LOX IMVI > 100 µM | MCF7 > 100 µM | SF-539 > 100 µM | ACHN > 100 µM | M14 > 100 µM | SNB-19 > 100 µM | PC-3 > 100 µM | MDA-N > 100 µM | EKVX > 100 µM | OVCAR-3 > 100 µM | Malme-3M > 100 µM | CAKI-1 > 100 µM | COLO 205 > 100 µM | UACC-257 > 100 µM | Hs-578T > 100 µM | HCT-116 > 100 µM | RXF 393 > 100 µM

c1ccc(CNC2CC(NCc3ccccn3)CC(NCc3ccccn3)C2)nc1 (centres undefined)
inactive: UO-31 > 25 µM | A549 2.61 µM | HOP-92 4.67 µM | SF-295 6.21 µM | KM12 2.7 µM | TK-10 3.45 µM | CCRF-CEM 2.61 µM | SK-MEL-5 3.54 µM | SW-620 6.61 µM | MOLT-4 3.39 µM | SNB-75 4.27 µM | NCI-H460 5.15 µM | SK-MEL-28 3.08 µM | DU-145 4.73 µM | 786-0 2.38 µM | MDA-MB-435 4.5 µM | SF-268 5 µM | IGROV-1 4.38 µM | SN12C 5.22 µM | NCI-H522 4.6 µM | BT-549 5.27 µM | SK-OV-3 4.46 µM | NCI-H226 3.32 µM | T47D 5.66 µM | OVCAR-4 4.13 µM | HOP-62 6.89 µM | MCF7 3.5 µM | ACHN 9.51 µM | MDA-N 4.47 µM | OVCAR-3 4.08 µM | A498 3.05 µM | Malme-3M 3.52 µM | SK-MEL-2 5.11 µM | UACC-257 4.53 µM | Hs-578T 7.66 µM | HCT-116 3.1 µM
active: COLO 205 1.09 µM
4.72 µM: HCT-15

N#Cc1c(-c2ccccc2)[nH]c2ccccc2c1=O
62.8 µM: HCT-15
inactive: UO-31 > 10 µM | OVCAR-5 > 100 µM | A549 9.59 µM | HOP-92 > 100 µM | SF-295 21.8 µM | HCC 2998 > 10 µM | KM12 47.9 µM | TK-10 32.8 µM | CCRF-CEM > 100 µM | SK-MEL-5 66.7 µM | SW-620 91 µM | MOLT-4 > 100 µM | SR > 100 µM | SNB-75 15.1 µM | NCI-H460 > 100 µM | HL-60 90.4 µM | SK-MEL-28 > 100 µM | DU-145 > 100 µM | OVCAR-8 97.9 µM | 786-0 > 100 µM | MDA-MB-435 17.4 µM | SF-268 35 µM | HT-29 > 100 µM | IGROV-1 23.9 µM | SN12C 95.7 µM | NCI/ADR-RES > 100 µM | BT-549 25.8 µM | MDA-MB-231 26.2 µM | SK-OV-3 26.2 µM | NCI-H226 41.6 µM | UACC-62 73.8 µM | OVCAR-4 > 100 µM | HOP-62 27.7 µM | LOX IMVI > 100 µM | MCF7 67 µM | SF-539 > 100 µM | ACHN > 100 µM | K562 59.4 µM | M14 > 100 µM | SNB-19 22.8 µM | PC-3 > 100 µM | MDA-N 33.4 µM | EKVX > 100 µM | OVCAR-3 83.6 µM | A498 > 100 µM | Malme-3M 41.3 µM | CAKI-1 > 100 µM | COLO 205 > 100 µM | SK-MEL-2 39.6 µM | UACC-257 > 100 µM | Hs-578T 19.2 µM | HCT-116 87.5 µM | RXF 393 30.7 µM
